From the METLIN SMRT retention time set (Domingo-Almenara et al. 2019)

Assay: gradient 5% acetonitrile 3 min, to 50% in 2 min, to 85% in 15 min, held 3 min, 100 µL/min
Details: column: Zorbax Extend-C18 2.1 x 50 mm; eluents: water / acetonitrile, 0.1% formic acid
How it was run: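 Over 3 months, pure standards in mixtures of ~100 molecules were run by HPLC coupled to a quadrupole time-of-flight mass spectrometer in positive and negative ionization mode. The column was a Zorbax Extend-C18 (2.1 × 50 mm, 1.8 μm) at 100 μL/min, eluted with water and acetonitrile each holding 0.1% formic acid, with 40 μL dead and 900 μL dwell volumes. Retention time was determined from adduct peaks chosen by software and checked manually.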

Row | Structure (SMILES) | RP-LC retention time
1 | COc1ccc(C)cc1Nc1nc(C(=O)Nc2cccnc2)cs1 | 637 s
2 | COc1ccc2c(c1)C1(CCN(S(=O)(=O)c3cccc(F)c3)C1)C(=O)N2 (stereo not given) | 835 s
3 | Cc1c(Cl)ccc2c(=O)c3c([nH]c12)CCN(CC(=O)Nc1cccc(Cl)c1)C3 | 704 s
4 | COCC(C)(O)CNC(=O)C(=O)NCc1ccc(C)cc1 (stereo not given) | 674 s
5 | COc1cc(Cl)ccc1-c1nc(-c2ccc3c(c2)oc(=O)n3C)no1 | 1060 s
6 | COc1ccc(Cl)cc1C(=O)N1CCN=C1SCc1cccnc1 | 578 s
7 | CC(=O)c1cccc(NC(=O)CN2C(=O)NC3(CCCCC3)C2=O)c1 | 711 s
8 | Cc1cccc(S(=O)(=O)Nc2ccc(-c3cn4ccc(C)nc4n3)cc2)c1 | 659 s
9 | Cc1ccc(-c2coc(-c3cccc(NS(=O)(=O)c4ccc(Cl)s4)c3)n2)cc1 | 1310 s
10 | COc1ccc(-c2noc(C3(NC(=O)c4ccc(OC)c(F)c4)CCCCC3)n2)cc1 | 1140 s
11 | CCn1nc(C)cc1C(=O)Nc1nc2c(s1)CC(C)CC2 (stereo not given) | 935 s
12 | CC(C)N1C(=O)c2cccnc2Sc2cc(NC(=O)Cc3ccccc3F)ccc21 | 858 s
13 | COc1cc(C(=O)NC2C=CS(=O)(=O)C2)cc(OC)c1OC (stereo not given) | 615 s
14 | Cc1nc2cc(N3CC(C(=O)Nc4ccc(F)c(C)c4)CC3=O)ccc2o1 (stereo not given) | 753 s
15 | Cc1cnc(C(=O)N(C)C2CCc3nn(CC4CC4)c(=O)n3CC2)cn1 (stereo not given) | 618 s
16 | CC(C)NC(=O)N1CCC[C@H]1c1nc(-c2ccc(F)cc2)n[nH]1 | 678 s
17 | CCc1nnc(-c2cc(NC(=O)C3CCN(C(C)=O)CC3)c(C)s2)o1 | 697 s
18 | CC(=O)Nc1ccc(C(=O)N2CCC3(CC2)N=C(c2cccc(Br)c2)NO3)cc1 | 731 s
19 | Cc1cnc(CC2CCN(C(=O)C(C)C)C2)n1C1CC1 (stereo not given) | 557 s
20 | CC1=NS(=O)(=O)N(C)C=C1C(=O)OCc1ccc(Cl)cc1 | 978 s
21 | CCc1cccc(NC(=O)N2CCc3c(c(-c4nc(C5CC5)no4)nn3C)C2)c1 | 928 s
22 | COc1ccc(-c2ncccc2CNS(=O)(=O)c2cccc(OC)c2)cc1 | 670 s
23 | O=C(NC1CCCCC1N1C(=O)CSC1=O)c1ccco1 (stereo not given) | 668 s
24 | CN(C)c1ccc(CCNC(=O)c2cccc(C(F)(F)F)c2)cc1 | 621 s
25 | COc1cccc(-c2noc(CN3C(=O)COc4cc(C)ccc43)n2)c1 | 1050 s
26 | CCc1nc(-c2ccc3c(c2)CCN3C(=O)COc2ccc(OC)cc2)no1 | 1000 s
27 | COc1cccc(C2c3c(oc4cc(C)c(C)cc4c3=O)C(=O)N2CCCN2CCOCC2)c1 (stereo not given) | 695 s

Row | Structure (SMILES) | RP-LC retention time
28 | CCNC(=O)N1CC(n2cc(C(=O)NCCOC)nn2)C1 | 1260 s
29 | O=C(Cn1ccn2nc(-c3ccccc3)c(CO)c2c1=O)Nc1cccc(Cl)c1 | 856 s
30 | COc1cccc(-n2c(=O)c(C(=O)Nc3ccc(F)cc3F)c(O)c3cccnc32)c1 | 1220 s
31 | Cc1cccc(C(=O)N2CCCC2c2cc(C(C)C)on2)c1 (stereo not given) | 948 s
32 | O=C(CN1CCC2(CC1)N=C(c1ccc(Cl)cc1)C(=O)N2)Nc1ccc2c(c1)OCO2 | 681 s
33 | CCCN1C(=O)COc2ccc(-c3noc(COc4ccc(Cl)cc4C)n3)cc21 | 1260 s
34 | CC(C)NC(=O)c1ccc(OCC2CCN(C(=O)c3ccc(Cl)cc3)CC2)cc1 | 918 s
35 | COc1cc(NC(=O)c2cn(-c3cc(N(C)C)ncn3)cn2)cc(OC)c1 | 809 s
36 | COc1ccc(-c2cn3c(CC(=O)Nc4ccc(OC)c(Cl)c4)csc3n2)cc1 | 805 s
37 | COc1cc2nc(C(=O)N3CCCCC3)cc(Nc3ccc(Br)cc3)c2cc1OC | 743 s
38 | Cc1ccc(NC(=O)C2CCCN(c3cc(=O)n(C)c(=O)n3C)C2)cc1C (stereo not given) | 746 s
39 | COc1ccc(NC(=O)CSc2ccc(N3CCCC(C(=O)NC4CC4)C3)nn2)cc1OC (stereo not given) | 596 s
40 | COc1ccc(OCC(=O)N(C)CCc2noc(COc3ccccc3F)n2)cc1 | 848 s
41 | Cc1noc(C2CN(C(=O)Nc3ccc(C)c(Cl)c3)CC23CCOCC3)n1 (stereo not given) | 816 s
42 | COc1ccc(-c2nc(-c3nnn(-c4ccccc4)c3C)no2)c(OC)c1 | 1000 s
43 | CCc1cccc(NC(=O)N2CCCC2c2nc(-c3ccc(OC)cc3)no2)c1 (stereo not given) | 925 s
44 | COCCn1nc2n(c1=O)CCC1(CC2)CCN(C(=O)C2CCCCCC2)CC1 | 710 s
45 | CCn1cc(CCNC(=O)C(C)C)c2cccnc21 | 612 s
46 | O=C(NC1CC1)[C@@H]1C[C@H](Oc2ccccc2)CN1C(=O)c1ccsc1 | 733 s
47 | CCN1C(=O)c2ccccc2Oc2ccc(C(=O)NCCc3ccc(OC)c(OC)c3)cc21 | 864 s
48 | Cc1nn(C)c(C)c1CCN(C)C(=O)C1Cn2cccc2C(=O)N1C (stereo not given) | 680 s
49 | O=C(Nc1cccc(OCc2nnc(-c3ccc(F)cc3)o2)c1)c1ccsc1 | 920 s
50 | CCN1C(=O)COc2ccc(-c3noc(-c4cccc(OC)c4OC)n3)cc21 | 1060 s
51 | Brc1cncc(-c2nc(-c3cccc(-c4ccn[nH]4)c3)no2)c1 | 954 s
52 | COc1ccc2c(c1)C1CC(C)(NC(=O)C1C(=O)c1ccccc1)O2 (stereo not given) | 758 s
53 | CCn1ccc2c(cc(C(=O)Nc3cc(Cl)ccc3OC)n2C)c1=O | 1150 s

Results, then the compound that gave them:

Row | RP-LC retention time | Structure (SMILES)
54 | 915 s | CCC(=O)Nc1c(C)noc1/C=C\c1ccc(S(=O)(=O)N2CCCCC2C)cc1 (stereo not given)
55 | 697 s | CCOC(=O)C1CCC(CNC(=O)N2CCN(Cc3nc4ccc(Cl)cc4o3)CC2)CC1 (stereo not given)
56 | 791 s | O=c1ccc(S(=O)(=O)N2CCOCC2)cn1Cc1cc(F)cc(F)c1
57 | 596 s | O=C(Nc1ccc(F)cc1F)N1CCN(c2cc(-c3ccncc3)[nH]n2)CC1
58 | 954 s | CS(=O)(=O)N1CCC(C(=O)Nc2cccc(Cl)c2)Oc2ccccc21 (stereo not given)
59 | 782 s | Cc1ccc2c(c1)N(C(=O)Cn1cnc3nc4c(cc3c1=O)CCCC4)CCO2
60 | 748 s | O=C(C1=CN(c2ccc(F)cc2)c2cc(F)ccc2S1(=O)=O)N1CCCC1
61 | 676 s | COc1cccc(S(=O)(=O)N2C[C@@H](F)C[C@H]2C(=O)N2CCOCC2)c1
62 | 727 s | CCOCCCNC(=O)c1nnc(-c2ccc(S(=O)(=O)N3CCOCC3)cc2)o1
63 | 666 s | CCC1CN2C=Nc3oc(C)c(C(=O)NCCc4ccccc4)c3C2=N1 (stereo not given)
64 | 754 s | COC(=O)C1=CN(c2cccc(C#N)c2)c2ccccc2S1(=O)=O
65 | 821 s | CCOC(=O)N1CCN(c2ncc(S(=O)(=O)c3ccccc3)c(N)n2)CC1
66 | 951 s | COc1ccc(-c2csc(NC(=O)Cn3c(=O)sc4ccccc43)n2)cc1
67 | 670 s | O=C(CSc1nc2ccccc2c(=O)n1Cc1cccs1)Nc1ncn[nH]1
68 | 801 s | COc1ccccc1NC(=O)C1CCCN1S(=O)(=O)c1cc2c(cc1C)NC(=O)C(C)O2 (stereo not given)
69 | 590 s | Cc1ccc(-c2cc(C(=O)N3CCN(C4CCN(C)CC4)CC3)n(C)c2)cc1
70 | 605 s | O=C(c1ccnc(-c2cccs2)c1)N1CCN(c2ccccn2)CC1
71 | 1170 s | COc1ccc(S(=O)(=O)N2CCC(c3noc(-c4cccc(C)c4)n3)CC2)cc1
72 | 877 s | Cc1ccc(F)cc1NS(=O)(=O)c1cc2c(s1)CCN(C(=O)C1CCC1)C2

Row | RP-LC retention time | Structure (SMILES)
73 | 971 s | O=C(CCC1CCN(S(=O)(=O)c2ccccc2)CC1)NCC1CCCCC1
74 | 966 s | COc1ccc(-c2nnc(-c3ccccc3)o2)cc1S(=O)(=O)NC1CCCC1
75 | 830 s | CCc1cc(=O)n(CC(=O)Nc2ccccc2Cl)c(N2CCOCC2)n1
76 | 545 s | CCOC(=O)C1=C(CN2CCCCC2)NC(=O)NC1c1cccs1 (stereo not given)
77 | 729 s | O=C(NCC1CCN(C(=O)c2cc3ccccc3o2)CC1)Nc1c(F)cccc1F
78 | 951 s | CCOC(=O)C1CCN(C(=O)c2cc3sc(C)cc3n2C)CC1
79 | 941 s | CC1CCN(S(=O)(=O)c2ccc(-c3nnc(C(=O)N4CCCC4)o3)cc2)CC1
80 | 579 s | O=C(C1CCCC1)N1CC(N(Cc2ccccn2)C(=O)Nc2ccccc2)C1
81 | 1030 s | Cc1cccc(C)c1N1CCN(C(=O)c2cccc(F)c2)CC1
82 | 576 s | Cn1cnc2c(=O)oc3ccc(S(=O)(=O)N4CCN(c5ccccn5)CC4)cc3c21
83 | 971 s | CSc1ccc(CCNC(=O)C2CCCN(C(=O)Cc3cccc4ccccc34)C2)cc1 (stereo not given)
84 | 1060 s | O=S(=O)(Cc1ccccc1)N1CCC(c2noc(COCc3ccccc3)n2)CC1
85 | 670 s | Cn1c(=O)sc2cc(S(=O)(=O)N3CCC(C(=O)NC4CC4)CC3)ccc21
86 | 812 s | CC(C)n1c(N2CCN(C(=O)c3cccs3)CC2)cc(=O)n(C(C)C)c1=O
87 | 613 s | CCOc1cc(=O)c(C(N)=O)nn1-c1ccc(C)cc1
88 | 856 s | COc1ccc(-c2nc(NC3CCCCC3)c3ccccc3n2)cc1
89 | 730 s | O=C(CCNc1c(-c2ccc(F)cc2)nc2cnccn12)N1CCCCC1
90 | 690 s | CCCCN1CCN(C(=O)c2cn(-c3cc(N4CCC(C)CC4)ncn3)cn2)CC1
